Laboratory results reported in US20080188528A1, “Modulators of C3a receptor and methods of use thereof” (priority 2006, published 2008).
Structures can show the parent of a compound that is named as a salt.

target: T1, human C3a receptor (C3aR) (Homo sapiens, UniProt Q16581); test: Inhibition of human [125I]-C3a binding to human C3a receptor (SPA, membranes of HEK293 cells expressing recombinant C3aR); conditions: 0.1 nM [125I]-C3a, 3 hours at room temperature; Table 1
T1 construct: expressed in transfected cells
T1 sequence (Q16581 1-482): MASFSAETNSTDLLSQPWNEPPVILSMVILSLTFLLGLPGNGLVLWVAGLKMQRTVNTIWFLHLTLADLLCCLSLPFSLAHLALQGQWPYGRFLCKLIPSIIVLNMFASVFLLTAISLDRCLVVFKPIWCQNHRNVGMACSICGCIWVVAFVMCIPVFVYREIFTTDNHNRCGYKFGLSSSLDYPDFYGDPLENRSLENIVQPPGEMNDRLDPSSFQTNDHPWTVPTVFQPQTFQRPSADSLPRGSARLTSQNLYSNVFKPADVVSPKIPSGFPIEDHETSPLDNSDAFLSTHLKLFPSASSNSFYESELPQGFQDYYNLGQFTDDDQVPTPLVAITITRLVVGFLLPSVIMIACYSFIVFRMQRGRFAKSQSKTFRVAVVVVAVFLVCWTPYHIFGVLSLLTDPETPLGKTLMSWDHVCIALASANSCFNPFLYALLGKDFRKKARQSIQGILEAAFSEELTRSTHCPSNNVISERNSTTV
Method: Inhibition of human [^125I]-C3a binding to human C3a receptor
Binding of human [^125I]-C3a to human C3a receptor (C3aR) was done using cell membranes from HEK293 cells stably expressing recombinant C3aR, in a homogeneous scintillation proximity assay (SPA). The C3aR cell membranes were pre-coupled over-night at 4° C. to WGA-PVT SPA beads (Amersham) at a ratio of 10 μg cell membrane to 0.5 mg beads/assay. Assay was performed in 96-well microtiter Optiplates (Packard) by mixing coupled beads and 0.1 nM [^125I]-C3a (2200 Ci/mmol, Perkin Elmer Life Sciences), in a total volume of […] binding buffer (20 mM HEPES, pH 7.4, 125 mM NaCl, 5 mM KCl, 1 mM CaCl2, 1 mM MgCl2, 0.25% BSA, 0.2% CHAPS). Test compounds were diluted in DMSO and were tested for their inhibitory potential in the assay (final concentration≦1% DMSO). Incubation was done for 3 hours at room temperature followed by reading in a TopCount scintillation microplate reader. Non-specific binding was determined by adding 1 μM unlabeled C3a (Calbiochem) to the assay mixture. Calculation of the IC50 was done as above using a nonlinear least square fitting program, with Graphpad Prism.

| SMILES | IC50 [nM] |
| --- | --- |
| N=C(N)NCCC[C@H](NC(=O)c1cccn(Cc2ccccc2-c2ccccc2)c1=O)C(=O)O [Compound 20, (2S)-2-({[1-(biphenyl-2-ylmethyl)-2-oxo-1,2-dihydropyridin-3-yl]carbonyl}amino)-5-carbamimidamidopentanoic acid•TFA] | < 50 |
| N=C(N)NCCC[C@H](NC(=O)c1cccn(C2c3ccccc3-c3ccccc32)c1=O)C(=O)O [Compound 10, (2S)-5-carbamimidamido-2-({[1-(9H-fluoren-9-yl)-2-oxo-1,2-dihydropyridin-3-yl]carbonyl}amino)pentanoic acid•TFA] | 50 to 500 |
| N=C(N)NCCC[C@H](NC(=O)c1cccn(CC(c2ccccc2)c2ccccc2)c1=O)C(=O)O [Compound 11, (2S)-5-carbamimidamido-2-({[1-(2,2-diphenylethyl)-2-oxo-1,2-dihydropyridin-3-yl]carbonyl}amino)pentanoic acid•TFA] | < 50 |
| COc1cc2ccccc2cc1Cn1cccc(C(=O)N[C@@H](CCCNC(=N)N)C(=O)O)c1=O [Compound 18, (2S)-5-carbamimidamido-2-[({1-[(3-methoxy-2-naphthyl)methyl]-2-oxo-1,2-dihydropyridin-3-yl}carbonyl)amino]pentanoic acid•TFA] | 50 to 500 |
| N=C(N)NCCC[C@H](NC(=O)c1cccn(Cc2ccc3ccccc3c2)c1=O)C(=O)O [Compound 13, (2S)-5-carbamimidamido-2-({[1-(2-naphthylmethyl)-2-oxo-1,2-dihydropyridin-3-yl]carbonyl}amino)pentanoic acid•TFA] | < 50 |
| N=C(N)NCCC[C@H](NC(=O)c1cccn(Cc2ccc(Br)cc2)c1=O)C(=O)O [Compound 5, (2S)-2-({[1-(4-bromobenzyl)-2-oxo-1,2-dihydropyridin-3-yl]carbonyl}amino)-5-carbamimidamidopentanoic acid•TFA] | < 50 |
| N=C(N)NCCC[C@H](NC(=O)c1ccc(-c2ccccc2)n(Cc2ccccc2)c1=O)C(=O)O [Compound 36, (2S)-2-{[(1-benzyl-2-oxo-6-phenyl-1,2-dihydropyridin-3-yl)carbonyl]amino}-5-carbamimidamidopentanoic acid•TFA] | 500 to 20000 |

same assay, conditions: 0.1 nM [125I]-C3a, 3 hours at room temperature; Table 2

| SMILES | IC50 [nM] |
| --- | --- |
| Cc1cc(C)cc(C(c2cc(C)cc(C)c2)n2cccc(C(=O)N[C@@H](CCCNC(=N)N)C(=O)O)c2=O)c1 [Compound 47, (2S)-2-[({1-[bis(3,5-dimethylphenyl)methyl]-2-oxo-1,2-dihydropyridin-3-yl}carbonyl)amino]-5-carbamimidamidopentanoic acid•TFA] | < 50 |

same assay, conditions: 0.1 nM [125I]-C3a, 3 hours at room temperature; Table 3

| SMILES | IC50 [nM] |
| --- | --- |
| N=C(N)NCCC[C@H](NC(=O)c1ccc(=O)n(Cc2ccccc2)c1)C(=O)O [Compound 54, (2S)-2-{[(1-benzyl-6-oxo-1,6-dihydropyridin-3-yl)carbonyl]amino}-5-carbamimidamidopentanoic acid•TFA] | 50 to 500 |
| CC(C)(C(=O)NC(c1ccccc1)c1ccccc1)C(=O)N[C@@H](CCCNC(=N)N)C(=O)O [Compound 58, (2S)-5-carbamimidamido-2-({3-[(diphenylmethyl)amino]-2,2-dimethyl-3-oxopropanoyl}amino)pentanoic acid•TFA] | < 50 |
| N=C(N)NCCC[C@H](NC(=O)c1ccn(C(c2ccccc2)c2ccccc2)c(=O)c1)C(=O)O [Compound 56, (2S)-5-carbamimidamido-2-({[1-(diphenylmethyl)-2-oxo-1,2-dihydropyridin-4-yl]carbonyl}amino)pentanoic acid•TFA] | 50 to 500 |

same assay, conditions: 0.1 nM [125I]-C3a, 3 hours at room temperature; Table 4

| SMILES | IC50 [nM] |
| --- | --- |
| Cc1ccc(S(=O)(=O)NCCC[C@H](NC(=O)c2cccn(C(c3ccccc3)c3ccccc3)c2=O)C(=O)O)cc1 [Compound 68, (2S)-2-({[1-(diphenylmethyl)-2-oxo-1,2-dihydropyridin-3-yl]carbonyl}amino)-5-{[(4-methylphenyl)sulfonyl]amino}pentanoic acid] | 500 to 20000 |
| N=C(NCCC[C@H](NC(=O)c1cccn(Cc2ccccc2)c1=O)C(=O)O)N[N+](=O)[O-] [Compound 73, (2S)-2-{[(1-benzyl-2-oxo-1,2-dihydropyridin-3-yl)carbonyl]amino}-5-(nitrocarbamimidamido)pentanoic acid] | 500 to 20000 |
| Cc1ccc(S(=O)(=O)NCCC[C@H](NC(=O)c2cccn(Cc3ccccc3)c2=O)C(=O)O)cc1 [Compound 67, (2S)-2-{[(1-benzyl-2-oxo-1,2-dihydropyridin-3-yl)carbonyl]amino}-5-{[(4-methylphenyl)sulfonyl]amino}pentanoic acid] | 500 to 20000 |
| Cc1c(C)c(S(=O)(=O)NC(=N)NCCC[C@H](NC(=O)c2cccn(CC(c3ccccc3)c3ccccc3)c2=O)C(=O)O)c(C)c2c1OC(C)(C)CC2 [Compound 79, (2S)-2-({[1-(2,2-diphenylethyl)-2-oxo-1,2-dihydropyridin-3-yl]carbonyl}amino)-5-{[(2,2,5,7,8-pentamethyl-3,4-dihydro-2H-chromen-6-yl)sulfonyl]carbamimidamido}pentanoic acid•TFA] | 50 to 500 |
| N=C(N)NCCCC[C@H](NC(=O)c1cccn(Cc2ccccc2)c1=O)C(=O)O [Compound 63, (2S)-2-{[(1-benzyl-2-oxo-1,2-dihydropyridin-3-yl)carbonyl]amino}-6-carbamimidamidohexanoic acid•TFA] | 500 to 20000 |
| CS(=O)(=O)NCCC[C@H](NC(=O)c1cccn(C(c2ccccc2)c2ccccc2)c1=O)C(=O)O [Compound 69, (S)-2-(1-benzhydryl-2-oxo-1,2-dihydropyridine-3-carboxamido)-5-(methylsulfonamido)pentanoic acid] | 50 to 500 |
| O=C(N[C@@H](CCCNC1=NCCN1)C(=O)O)c1cccn(C(c2ccccc2)c2ccccc2)c1=O [Compound 71, (2S)-5-(4,5-dihydro-1H-imidazol-2-ylamino)-2-({[1-(diphenylmethyl)-2-oxo-1,2-dihydropyridin-3-yl]carbonyl}amino)pentanoic acid•TFA] | < 50 |
| O=C(N[C@@H](CCCNC1=NCCN1)C(=O)O)c1cccn(Cc2ccccc2)c1=O [Compound 70, (2S)-2-{[(1-benzyl-2-oxo-1,2-dihydropyridin-3-yl)carbonyl]amino}-5-(4,5-dihydro-1H-imidazol-2-ylamino)pentanoic acid•TFA] | 500 to 20000 |
| CCOC(=O)N=C(NC)NCC[C@H](NC(=O)c1cccn(C(c2ccccc2)c2ccccc2)c1=O)C(=O)O [Compound 66, (2S)-2-({[1-(diphenylmethyl)-2-oxo-1,2-dihydropyridin-3-yl]carbonyl}amino)-4-{[[(ethoxycarbonyl)amino](methylamino)methylene]amino}butanoic acid] | 500 to 20000 |

same assay, conditions: 0.1 nM [125I]-C3a, 3 hours at room temperature; Table 5

| SMILES | IC50 [nM] |
| --- | --- |
| O=C(N[C@@H](Cc1c[nH]cn1)C(=O)O)c1cccn(C(c2ccccc2)c2ccccc2)c1=O [Compound 85, (2S)-2-({[1-(diphenylmethyl)-2-oxo-1,2-dihydropyridin-3-yl]carbonyl}amino)-3-(1H-imidazol-4-yl)propanoic acid•TFA] | 50 to 500 |

same assay, conditions: 0.1 nM [125I]-C3a, 3 hours at room temperature; Table 6

| SMILES | IC50 [nM] |
| --- | --- |
| N/C(=N\O)NCCC[C@H](NC(=O)c1cccn(C(c2ccccc2)c2ccccc2)c1=O)C(=O)O [Compound 92, (2S)-2-({[1-(Diphenylmethyl)-2-oxo-1,2-dihydropyridin-3-yl]carbonyl}amino)-5-(hydroxycarb-amimidamido)pentanoicacid] | < 50 |
| N=C(N)NCCCC[C@H](NC(=O)c1cccn(C(c2ccccc2)c2ccccc2)c1=O)C(=O)O [Compound 87, (2S)-6-Carbamimidamido-2-({[1-(diphenylmethyl)-2-oxo-1,2-dihydropyridin-3-yl]carbonyl}amino)hexanoic acid] | < 50 |
| CC(=N)NCCC[C@H](NC(=O)c1cccn(Cc2cc(Br)cc(Br)c2)c1=O)C(=O)O [Compound 115, (2S)-2-({[1-(3,5-dibromobenzyl)-2-oxo-1,2-dihydropyridin-3-yl]carbonyl}amino)-5-(ethanimidoylamino)pentanoic acid•TFA] | < 50 |
| N=C(N)NCCC[C@H](NC(=O)c1ccc(C(c2ccccc2)c2ccccc2)s1)C(=O)O [Compound 97, (2S)-5-Carbamimidamido-2-({[5-(diphenylmethyl)thiophen-2-yl]carbonyl}amino)pentanoic acid] | < 50 |
| COc1ccn(C(c2ccccc2)c2ccccc2)c(=O)c1C(=O)N[C@@H](CCCNC(C)=N)C(=O)O [Compound 122, (2S)-2-({[1-(diphenylmethyl)-4-methoxy-2-oxo-1,2-dihydropyridin-3-yl]carbonyl}amino)-5-(ethanimidoylamino)pentanoic acid•TFA] | 500 to 20000 |
